Laboratory results from publication PMC5397059, “Design, synthesis and structure-activity relationship study of wollamide B; a new potential anti TB agent” (PLoS ONE, 2017).
≈ marks a conversion by molar mass, not a printed value. Where “and” joins values, the source holds several entries; their conditions need not be identical. Equal entries are not always repeated. Non-standard residues stand in square brackets, D forms with d. Residues, ends and D or L forms follow the SMILES beside them. dOrn = NCCC[C@@H](N)C(=O)O

Experiments:
[1] = Chemi-Luminescent Nitrogen Detection (CLND) kinetic solubility assay; type: physicochemical; conditions: phosphate buffered saline, pH 7.4; kinetic aqueous solubility by CLND; read-out: Solubility
In short: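 10 mM DMSO stock diluted 5 μL into 100 uL pH 7.4 phosphate buffered saline, equilibrated 1 h at room temperature, then filtered. Filtrate quantified by calibrated flow-injection CLND; standard error ±30 μM, upper limit 500 μM.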

[2] = Chrom logD assay; type: physicochemical; conditions: pH 7.4; read-out: Log D
In short: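 Reversed-phase C18 HPLC with fast acetonitrile gradient starting from 100% pH 7.4 buffer; CHI from retention times via calibration standards. ChromlogD = 0.0857CHI − 2.00; assay error ±3 CHI or ±0.25 ChromlogD.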

[3] = Artificial membrane permeability assay; type: in vitro ADME; conditions: PAMPA, pH 7.4; passive artificial membrane permeability; read-out: Permeability
In short: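 PAMPA using L-α-phosphatidylcholine in cholesterol decane as the membrane, with 50 mM phosphate buffer containing 0.5% encapsin at pH 7.4 on both sides. Compound added to donor; plates shaken 3 h at room temperature in duplicate. Donor and receiver concentrations measured by HPLC; permeability reported in nm/sec.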

[4] = molecular target: human serum albumin (Homo sapiens, UniProt P02768); test: Human serum albumin (HSA) binding assay; type: in vitro ADME; conditions: human serum albumin binding
Sequence of human serum albumin (P02768 25-609): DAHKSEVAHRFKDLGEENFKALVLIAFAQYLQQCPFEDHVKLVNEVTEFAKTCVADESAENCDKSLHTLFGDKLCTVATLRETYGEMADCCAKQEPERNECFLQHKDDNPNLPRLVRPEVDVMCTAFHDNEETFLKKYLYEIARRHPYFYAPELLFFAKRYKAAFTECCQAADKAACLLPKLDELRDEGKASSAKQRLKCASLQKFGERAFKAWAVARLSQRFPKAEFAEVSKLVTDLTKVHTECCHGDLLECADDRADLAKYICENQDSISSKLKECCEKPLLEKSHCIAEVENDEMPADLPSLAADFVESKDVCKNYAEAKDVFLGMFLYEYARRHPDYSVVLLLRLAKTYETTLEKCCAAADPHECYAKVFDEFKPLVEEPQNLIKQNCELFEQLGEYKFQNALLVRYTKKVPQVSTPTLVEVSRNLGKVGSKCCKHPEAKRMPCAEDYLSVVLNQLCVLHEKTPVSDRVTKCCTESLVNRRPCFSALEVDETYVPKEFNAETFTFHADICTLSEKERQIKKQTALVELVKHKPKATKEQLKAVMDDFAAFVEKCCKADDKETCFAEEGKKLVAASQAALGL
In short: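 Gradient retention times measured on an immobilized HSA HPLC column with UV detection. Retention times converted to HSA binding values by a linear calibration against reference compounds of known binding, run before each batch.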

[5] = Plasma stability assay, mouse plasma; type: in vitro ADME; conditions: CD1, mouse, plasma; 2 hours at 37°C, triplicates; read-out: Plasma stability (% remaining) Mouse
Experimental: (§1) Plasma stability of the compounds was assessed in CD1 mouse and human plasma. Plasma was spiked with 1 μL of a 10 mM of each test compound solution to produce a 1 uM incubation. Three separate 300 μl aliquots were then taken from each tube and incubated at 37°C for 2 h. At each time point (0, 15, 30, 60 and 120 min), 50 μL of plasma were collected from each sample. Samples were extracted by protein precipitation with 250 μL of 0.1% AcOH acetonitrile methanol 3–1 (v/v) containing 1uM internal standard and centrifuged for 10min at 2800rpm. Supernatants were collected prior the injection onto an LC-MS/MS system. Analyte/Internal standard peak area ratios were referenced to the zero time-point samples as 100% in order to determine the percentage of compound remaining for each time-point. Ln plots of the % remaining for each compound were used to determine the half-life for the plasma incubations.

[6] = Plasma stability assay, human plasma; type: in vitro ADME; conditions: human, plasma; 2 hours at 37°C, triplicates; read-out: Plasma stability (% remaining) Human
Experimental: as §1

[7] = Intrinsic clearance (CLint) assay, mouse liver microsomes; type: in vitro ADME; conditions: for % LBF Mouse: liver blood flow; for CLint Mouse: mouse liver microsomes; for half-life at 0.5 µM: mouse, pooled mouse liver microsomes, pH 7.4, read-out: Microsomal t1/2 Mouse; for CLpred Mouse: predicted metabolic clearance
In short: (§2)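 Pooled liver microsomes (0.5 mg/mL protein) with test compound at 0.5 μM (0.5% DMSO), 5 mM MgCl2 and pH 7.4 phosphate buffer were run at 37°C; 1 mM NADPH started the reaction. Samples at 0-45 min were analysed by LC-MS/MS; t1/2 and CLint were derived from the ln peak-area-ratio slope.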

[8] = Intrinsic clearance (CLint) assay, human liver microsomes; type: in vitro ADME; conditions: for CLint Human: human liver microsomes; for half-life at 0.5 µM: human, pooled human liver microsomes, pH 7.4, human liver microsomes, read-out: Microsomal t1/2 Human; for % LBF Human: liver blood flow; for CLpred Human: predicted metabolic clearance
In short: as §2

[9] = tested on: Mtb H37Rv; conditions: duplicate; analogues

| SMILES | solubility kinetic at 1 h [1] [µg/mL] | chromatographic logD [2] | Papp at 3 h [3] [×10⁻⁶ cm/s] | % HSA [4] | remaining at 2 h, 1 uM [5] [%] | remaining at 2 h, 1 uM [6] [%] | % LBF Mouse [7] [%] | CLint Mouse [7] [mL/min/g tissue] | half-life at 0.5 µM [7] [h] | CLpred Mouse [7] [mL/min/kg] | CLint Human [8] [mL/min/g tissue] | half-life at 0.5 µM [8] [h] | % LBF Human [8] [%] | MIC against Mtb H37Rv [9] [µM] | CLpred Human [8] [mL/min/kg] |
| --- | --- | --- | --- | --- | --- | --- | --- | --- | --- | --- | --- | --- | --- | --- | --- |
| CC(C)C[C@H]1NC(=O)[C@H](C)NC(=O)[C@H](Cc2c[nH]c3ccccc23)NC(=O)[C@@H](CCCN)NC(=O)[C@H](CC(N)=O)NC(=O)[C@H](C(C)C)NC1=O [Compound 2c] (cyclo(A[dL]VN[dOrn]W)) | > 134 | 0.94 | < 1 | 43.14% | 93 | 107 | <16.27 | <0.48 | > 2.31 | <20.50 | <0.40 | > 2.31 | <35.08 | >80 |  |
| CC(C)C[C@@H]1NC(=O)[C@H](Cc2c[nH]c3ccccc23)NC(=O)[C@@H](CCCN)NC(=O)[C@H](C)NC(=O)[C@H](C(C)C)NC(=O)[C@@H](CC(C)C)NC1=O [Compound 4c] (cyclo(A[dOrn]WL[dL]V)) | 143 (≈ 205 µM) | 2 | < 0.3 | 83% and 82.76% | 100 | 95 | <16.27 | <0.48 | > 2.31 | <20.50 | <0.40 | > 2.31 | <35.08 | 20 (≈ 13.9 µg/mL) | 6.31 |
| CC(C)C[C@@H]1NC(=O)[C@H](Cc2c[nH]c3ccccc23)NC(=O)[C@@H](CCCN)NC(=O)[C@H](CC(N)=O)NC(=O)[C@H](C)NC(=O)[C@@H](CC(C)C)NC1=O [Compound 5c] (cyclo(AN[dOrn]WL[dL])) | 129 (≈ 181 µM) | 1.32 | < 1 | 56.76% | 96 | 98 | <16.27 | <0.48 | > 2.31 | <20.50 | <0.40 | > 2.31 | <35.08 | >80 | 6.31 |
| CC(C)C[C@@H]1NC(=O)[C@H](Cc2c[nH]c3ccccc23)NC(=O)[C@@H](CCCN)NC(=O)[C@H](CC(N)=O)NC(=O)[C@H](C(C)C)NC(=O)[C@@H](C)NC1=O [Compound 6c] (cyclo(L[dA]VN[dOrn]W)) | ≥ 196 | 1.04 | < 1 | 42.21% | 102 | 95 | <16.27 | <0.48 | > 2.31 | <20.50 | 0.73 | 1.25 | 49.94 | >80 | 8.99 |
